Reference: patent US7153858B2, “Arylpiperazinyl compounds” (Epix Delaware, Inc., priority 2003, dated 2006)
Entries after “also recorded” stand apart in the source; their conditions may differ. Counter-ions that a name gives are not always drawn.

Legend:
Format in all cases: in vivo
Coloboma mice = test: Open Field, hyperlocomotor activity of Coloboma mutant mice (ADHD model); conditions: vs vehicle
From the text: The mice used in the current study are the offspring of breeding pairs (C3H/HeSnj-Cm) originally purchased from Jackson Laboratory, Bar Harbor, Me. Of the 48 mice tested, 22 were male and 26 were female, at age between 12–20 weeks old. These animals were weaned at 21 days age and were housed in 2 to 4 littermates per cage in our animal facility where standard animal husbandry was maintained. The colony room was kept under 12-hour light/12-hour dark cycles with the lights on at 7:00 a.m. Temperature was maintained between 20 and 23° C. with a relative humidity maintained between 30% and 70%. Animals received food chow and water provided ad libitum.
All compounds were dissolved in sterile injectable water, which served as the vehicle control. All solutions were prepared on the day of the experiments. Compound A as well as its vehicle (water) was given to animals orally (PO) in a volume of 10 ml/kg body weight; the reference compound was given to animals intraperitoneally (IP). […]
The study was conducted over two consecutive days with animals tested between 10:00 a.m. and 5:00 p.m. on each day. […] The results were recorded automatically and processed by microcomputer.
The open field activity monitor system (Med Associates, Inc.) measured general motor activity. […]
All data were analyzed by comparing the groups treated with the test substance to the vehicle control or reference treated groups. […]

129 svev mice [1] = test: Stress-Induced Hyperthermia (SIH); conditions: 1 hr before test
From the text: (§1) Young adult male C57B16/J mice from Jackson Laboratory, Bar Harbor, Me. were used in the Elevated Plus Maze; 129 svev mice from Taconic, Germantown, N.Y. were used in the Stress-induced Hyperthermia, Open Field, and the Tail Suspension tests, and DBA/2J mice from Jackson Laboratory, Bar Harbor, Me. were used in the Forced Swim test. All mice were received at the age of 6 weeks and were assigned unique identification numbers. Animals were housed 4 per cage in polycarbonate cages with filter tops, cagemate identification maintained by tail marks. Animals were acclimated for 7 days and given food and water ad libitum. Mice were examined prior to initiation of the study at 8 weeks of age to assure adequate health and suitability. During the course of the study, 12-hour light/12-hour dark cycles were maintained with the light on at 7:00 a.m. The room temperature was maintained between 20 and 23° C. with a relative humidity maintained between 30% and 70%. Chow and water were provided ad libitum.
(§2) In each test, animals were randomly assigned across treatment groups and balanced by cage number. Ten animals were used in each treatment group. Mice for the Open Field and Stress-induced hyperthermia studies were handled once daily for 2 consecutive days prior to the testing. Mice assigned to the Elevated plus maze experiment were not handled to increase the stress level at the time of the testing.
(§3) All compounds were dissolved in sterile injectable water, which served as the vehicle control. All solutions were prepared on the day of the experiments. […] In all tests except for the tail suspension (TS) test, drugs were administered acutely; in the TS test, Compound A was administered once daily for 3 days (test day inclusive) prior to testing. Thirty minutes pretreatment time was used in all tests except for SIH in which case compounds were given to the animals one hr before the test.
Mice have a natural hyperthermic response to stress, which has been proposed as a measure of stress-induced anxiety (Olivier, Zethof, Ronken & van der Heyden, European Journal of Pharmacology 342(2–3): 177–82, 1998). Anxiolytics are known to decrease this hyperthermic response to stress. This test involves two measures of rectal temperature repeated in the same animal within a 10 min period. On the day prior to testing, animals were brought to the experimental room 1 hr prior to scheduled lights out and singly housed overnight with food and water ad libitum. On the morning of the experiment, animals were first injected with treatment compound or vehicle. One hr post treatment, the animal was removed from the holding cage and held in a supine position and had rectal temperature measured by using a rectal probe attached to a PhysiTemp thermometer (Fisher Scientific). For each animal tested, the rectal probe was cleaned with an alcohol pad and lubricated with sterile K-Y jelly and slowly inserted into the animal's rectum at a length of approximately 3–5 mm. The probe remained within the animal's rectum for approximately 5 sec or until body temperature reached stability, and the baseline rectal temperature (T1) was recorded. The animal was immediately placed back to the holding cage and after a 10-min interval a second rectal temperature (T2) was taken using the same procedure as T1. The animal was then returned to the home cage and at the completion of the experiment returned to the colony room.
(§4) All data were analyzed by comparing the groups treated with the test substance to the vehicle control or reference treated groups. Statistical analysis was performed by ANOVA followed by Fisher's post-hoc test where appropriate. […] Data are represented as the means and standard error to the mean (s.e.m).

C57B16/J mice = test: Elevated Plus Maze (EPM); conditions: for Closed Arm Entries / Total Entries / Open Arm Time / Proportion Open Arm Entries: vs vehicle
From the text: as §1, §2, §3
The elevated plus maze is a test commonly used to assess anxiety in rodents. The maze consists of two closed arms (l×w×h: 15 cm×6 cm×30 cm) and two open arms (6 cm w×30 cm l) forming a cross, with a square center platform (6×6 cm). Rodents naturally fear open spaces and tend to spend more time in the closed arms. Anxiolytics will attenuate this fear of open spaces and will increase the number of time spent in open arms. All visible surfaces are made of a black acrylic. Each arm of the maze is placed on a support column 50 cm above the floor. The light intensity was ˜100 lux above the open arms and ˜70 lux above the closed arms. Animals were brought to the experimental room at least 1 hr before the test in the home cage (food and water available). Mice were placed in the center of the elevated plus maze facing an open arm, tested once, one at a time for a 5 min test. The time in the open/closed arms and the number of entries in the open/closed arms were recorded via video camera and used as a measure of anxiety. Mice were returned to the home cage after testing and then to the colony room.
as §4

129 svev mice [2] = test: Open Field (OF), general motor activity; conditions: 40 min session
From the text: as §1, §2, §3
The open field activity monitor system (Med Associates, Inc.) measured general motor activity. The test was performed under normal lighting conditions (400 lux). Mice were brought into the experimental room and allowed at least 1 hr of acclimation. Thirty min after treatment, each mouse was placed into the testing enclosure (l×w×h: 27 cm×27 cm×20 cm) with an infrared beam array that automatically monitors the animal's activity. Eight animals of balanced treatment were tested at one time. The test session lasted 40 min and animals were returned to the home cages at the end of the session. The critical measures of this test includes locomotion (total distance traveled), rearing (vertical activity), number of center entries and percent time spent in the center area of the OF arena.
as §4

[3] = test system: 129 svev mice (tail suspension), DBA/2J mice (forced swim); test: Tail suspension and forced swim test; conditions: PO; tail suspension: once daily for 3 days
From the text: as §1
as §3, with “Thirty minutes pretreatment time was used in all tests except for SIH in which case compounds were given to the animals one hr before the test.” left out

[4] = reference buspirone 20 mg/kg IP
[5] = reference buspirone 20 mg/kg IP, listed as buspirone
[6] = reference buspirone 3, 10 and 20 mg/kg PO

For `C[C@H](N)Cc1ccccc1` [d-Amphetamine, reference compound], which “locomotor activity (Distance Traveled)” value (Coloboma mice; 4 mg/kg IP, 15 min before the test) is on record?
Its value is “significantly decreased”.

For `O=C1CC2(CCCC2)CC(=O)N1CCCCN1CCN(c2ncccn2)CC1` [Buspirone, reference compound], which “Basal Rectal Temperature” value (129 svev mice [1]; [4]) is on record?
The value was “decrease”.

What about the “Temperature Change (stress-induced hyperthermia)” value (from here on “Temperature Change”) (129 svev mice [1]; [4]) of the same compound?
The value was “decrease”.

What about the “Basal Rectal Temperature” value (129 svev mice [1]; [5]) of the same compound?
Its value is “significantly decreased”.

What about the “Temperature Change” value (129 svev mice [1]; [5]) of the same compound?
The value was “significantly decreased”.

What about the “Closed Arm Entries” value (C57B16/J mice; 20 mg/kg PO) of the same compound?
Its value is “significantly decreased”.

And the “Total Entries” value (C57B16/J mice; 20 mg/kg PO)?
Its value is “significant decrease”.

And the “Closed Arm Entries” value (C57B16/J mice; 20 mg/kg PO, listed as BUS)?
The value was “decrease (BUS, 20)”.

And the “Total Entries” value (C57B16/J mice; 20 mg/kg PO, listed as BUS)?
The value was “decrease (BUS, 20)”.

What about the “anxiolytic-like effect in the EPM” value (C57B16/J mice; [6]) of the same compound?
Its value is “failed to produce a significant anxiolytic-like effect”.

And the “Open Arm Time” value (C57B16/J mice; [6])?
The value was “no effect”.

What about the “Frequency of Zone Crosses” value (129 svev mice [2]; reference buspirone PO) of the same compound?
Its value is “no change”.

And the “Percent Distance in Center” value (129 svev mice [2]; reference buspirone PO)?
The value was “no change”.

And the “Percent Time in Center” value (129 svev mice [2]; reference buspirone PO)?
The value was “no change”.

What about the “Total Distance (Horizontal)” value (129 svev mice [2]; reference buspirone PO) of the same compound?
The value was “no change”.

And the “Vertical Activity (Rearing)” value (129 svev mice [2]; reference buspirone PO)?
The value was “decreased the number of rears; also recorded: decrease”.

With `CC(=O)Nc1cccc(N2CCN(CCCCNS(=O)(=O)CC3CCCCC3)CC2)c1` [Compound A, N-{3-[4-(4-Cyclohexylmethanesulfonylamino-butyl)-piperazin-1-yl]-phenyl}-acetamide HCl] as the compound, how does the “Basal Rectal Temperature” value (129 svev mice [1]; 1 mg/kg PO, HCl) read?
The value was “did not show significant effects; also recorded: no change”.

And the “Temperature Change” value (129 svev mice [1]; 1 mg/kg PO, HCl)?
The value was “did not show significant effects; also recorded: no change”.

What about the “Basal Rectal Temperature” value (129 svev mice [1]; 3 mg/kg PO, HCl) of the same compound?
Its value is “did not show significant effects; also recorded: no change”.

And the “Temperature Change” value (129 svev mice [1]; 3 mg/kg PO, HCl)?
The value was “did not show significant effects; also recorded: no change”.

And the “Basal Rectal Temperature” value (129 svev mice [1]; 20 mg/kg PO, HCl)?
Its value is “significant decrease”.

What about the “Temperature Change” value (129 svev mice [1]; 20 mg/kg PO, HCl) of the same compound?
Its value is “significant decrease”.

What about the “Closed Arm Entries” value (C57B16/J mice; 3 mg/kg PO) of the same compound?
The value was “no change”.

And the “Total Entries” value (C57B16/J mice; 3 mg/kg PO)?
Its value is “no change”.

What about the “Open Arm Time” value (C57B16/J mice; 3 mg/kg PO, HCl) of the same compound?
The value was “significant anxiolytic-like effect; also recorded: increase”.

What about the “Proportion Open Arm Entries” value (C57B16/J mice; 3 mg/kg PO, HCl) of the same compound?
The value was “significant anxiolytic-like effect; also recorded: increase”.

What about the “Closed Arm Entries” value (C57B16/J mice; 10 mg/kg PO) of the same compound?
The value was “no change”.

What about the “Total Entries” value (C57B16/J mice; 10 mg/kg PO) of the same compound?
Its value is “no change”.

And the “Open Arm Time” value (C57B16/J mice; 10 mg/kg PO, HCl)?
The value was “did not reach statistical significance; also recorded: no change”.

What about the “Proportion Open Arm Entries” value (C57B16/J mice; 10 mg/kg PO, HCl) of the same compound?
The value was “did not reach statistical significance; also recorded: no change”.

What about the “Closed Arm Entries” value (C57B16/J mice; 20 mg/kg PO) of the same compound?
Its value is “no change”.

What about the “Total Entries” value (C57B16/J mice; 20 mg/kg PO) of the same compound?
Its value is “no change”.

What about the “Open Arm Time” value (C57B16/J mice; 20 mg/kg PO, HCl) of the same compound?
The value was “did not reach statistical significance; also recorded: no change”.

What about the “Proportion Open Arm Entries” value (C57B16/J mice; 20 mg/kg PO, HCl) of the same compound?
The value was “did not reach statistical significance; also recorded: no change”.

And the “hyperlocomotor activity (Distance Traveled)” value (Coloboma mice; doses of 1 and 20 mg/kg PO, 30 min pretreatment)?
Its value is “decreased the hyperlocomotor activity”.

And the antidepressive properties [3]?
The antidepressive properties was “did not appear to have antidepressive properties”.

And the “Frequency of Zone Crosses” value (129 svev mice [2]; 1 mg/kg PO)?
Its value is “No change”.

And the “Percent Distance in Center” value (129 svev mice [2]; 1 mg/kg PO)?
Its value is “No change”.

And the “Percent Time in Center” value (129 svev mice [2]; 1 mg/kg PO)?
Its value is “No change”.

What about the “Total Distance (Horizontal)” value (129 svev mice [2]; 1 mg/kg PO) of the same compound?
The value was “No change”.

What about the “Vertical Activity (Rearing)” value (129 svev mice [2]; 1 mg/kg PO) of the same compound?
Its value is “No change”.

And the “Frequency of Zone Crosses” value (129 svev mice [2]; 3 mg/kg PO)?
The value was “no change”.

And the “Percent Distance in Center” value (129 svev mice [2]; 3 mg/kg PO)?
Its value is “no change”.

What about the “Percent Time in Center” value (129 svev mice [2]; 3 mg/kg PO) of the same compound?
The value was “no change”.

What about the “Total Distance (Horizontal)” value (129 svev mice [2]; 3 mg/kg PO) of the same compound?
Its value is “no change”.

And the “Vertical Activity (Rearing)” value (129 svev mice [2]; 3 mg/kg PO)?
Its value is “no change”.

What about the “Frequency of Zone Crosses” value (129 svev mice [2]; 20 mg/kg PO) of the same compound?
The value was “no change”.

And the “Percent Distance in Center” value (129 svev mice [2]; 20 mg/kg PO)?
Its value is “no change”.

What about the “Percent Time in Center” value (129 svev mice [2]; 20 mg/kg PO) of the same compound?
The value was “no change”.

And the “Total Distance (Horizontal)” value (129 svev mice [2]; 20 mg/kg PO)?
Its value is “no change”.

What about the “Vertical Activity (Rearing)” value (129 svev mice [2]; 20 mg/kg PO) of the same compound?
Its value is “no change”.
